One sequence from patent US20200190210A1, “NEW TARGET FOR TREATING CANCER” (TONGJI UNIVERSITY SUZHOU INSTITUTE BIOMEDICAL RESEARCH …, priority 2017, published 2020) can be followed below.

The test system of test [1] is p-STAT3 (TM4SF1 associated non-classical DDR1 signaling pathway). Briefly: Western Blotting of p-STAT3, TM4SF1 associated non-classical DDR1 signaling pathway, in cells overexpressing TM4SF1 and DDR1. Format: cell-based, human. Particulars: Collagen I 10 μg/ml, 12 hours, FIG. 10; for inhibition of P-STAT3 / downstream signal transduction (Western Blotting), peptide: cells overexpressing TM4SF1 and DDR1, PBS negative control. Here is the method: The transfection method has been described in Example 4. 48 hours after transfection, the medium was removed, 2 ml of serum-free DMEM-HG medium containing a certain concentration of FC17-7 antibody obtained in Example 1 or IgG (as a negative control) was added. After incubating the culture dish at 37° C. for 5 minutes, Collagen I was added to the culture dish to a final concentration of 10 μg/ml and cultured for 12 hours. The cells were collected and lysed with IP-RIPA buffer in a refrigerator at 4° C. for 1 h. The lysate was sonicated twice (15 s 30% power), then centrifuged at 12,000 rpm for 30 min. The supernatant was sampled to determine the protein concentration, and the protein concentration of each sample was adjusted to be the same. The sample was subjected to SDS-PAGE electrophoresis, and the proteins were transferred to a membrane by conventional way in Western Blotting, and then stained with the antibody.
The transfection method has been described in Example 4. 48 hours after transfection, the medium was removed, 2 ml of serum-free DMEM-HG medium containing a certain concentration of the extracellular loop 1 peptide of TM4SF1 prepared in Example 3 or PBS (as a negative control) was added. After incubating the culture dish at 37° C. for 5 minutes, Collagen I was added to the culture dish to a final concentration of 10 μg/ml. The cells were cultured for 12 hours and then collected. The cells were lysed with IP-RIPA buffer in a refrigerator at 4° C. for 1 h. The lysate was sonicated twice (15 s 30% power), and then centrifuged at 12,000 rpm for 30 min. The supernatant was sampled to determine the protein concentration, and the protein concentration of each sample was adjusted to be the same. The sample was subjected to SDS-PAGE electrophoresis, and the proteins were transferred to a membrane by a conventional way used in Western Blotting, and then stained with antibody.

Test [2] deals with T1, interaction of TM4SF1 and DDR1 (Homo sapiens, UniProt P30408).
T1 construct: expressed in transfected cells; host or cells: 293FT cells
T1 sequence (P30408 1-202): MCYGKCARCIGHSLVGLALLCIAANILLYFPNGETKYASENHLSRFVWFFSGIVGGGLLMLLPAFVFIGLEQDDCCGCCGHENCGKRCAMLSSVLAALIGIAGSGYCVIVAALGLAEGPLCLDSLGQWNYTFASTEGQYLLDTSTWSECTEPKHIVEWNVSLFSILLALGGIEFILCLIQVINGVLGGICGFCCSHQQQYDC
Briefly: Co-immunoprecipitation / Western Blotting of TM4SF1 and DDR1 co-overexpressed in 293FT cells, Collagen I stimulated. Particulars: 293FT cells co-overexpressing TM4SF1 and DDR1, peptide overexpressed in 293FT cells and purified, Collagen I 10 μg/ml, 6 hours, FIG. 9. Format: cell-based. Here is the method:
293FT cells were cultured in DMEM-HG medium and digested with trypsin. The cells were counted and seeded at a density of 1×10^6 cells per dish in 6 cm (diameter) culture dish. The next day, 700 μl of serum-free DMEM-HG medium was respectively added to two centrifuge tubes. 10 μl of P-Pei transfection reagent was added to the first centrifuge tube. 1 μg PQCXIP-hTM4SF1 plasmid and 1 μg PQCXIN-hDDR1 plasmid were added to the second centrifuge tube and mixed well. The resultant from the second centrifuge tube was added to the first centrifuge tube and incubated for 20 min to obtain the transfection mixture. The culture medium of the 293FT cells seeded the day before was removed, and the transfection mixture above was added to the culture dish and incubated for 6 hours. Fresh medium was added to continue the culture. 48 hours after the transfection, the medium was removed, 2 ml of serum-free DMEM-HG medium containing a certain concentration of FC17-7 antibody obtained in Example 1 or IgG (as a negative control) was added. After incubating the culture dish at 37° C. for 5 minutes, Collagen I was added to the culture dish to a final concentration of 10 μg/ml. The cells were cultured for 6 hours and then collected. […] After the elution, the mixture was centrifuged at 3,000 rpm for 2 min to collect the supernatant, and the protein expression was detected by Western Blotting. […]
(In general: In western blotting, separated proteins are transferred to a membrane and probed.)

Test [3] deals with MDAMB231-BoM-1833-TGL cells. The test is described as follows: Breast cancer metastasis mouse model (ventricular injection of tumor cells, in vivo imaging, survival). Particulars: peptide injected from Day -1 every other day; for metastasis of breast cancer, peptide: mice, IgG negative control, FIGS. 11 and 12. As for the experimental part: The day before the injection of tumor cells into mice was recorded as Day −1 of the experiment. On Day −1, the mice were fasted for 4 hours, injected with the desired concentration of FC17-7 antibody obtained in Example 1 or IgG (as a negative control), and given food after 2 hours. After the first injection, the mice were injected with antibodies every three days. On Day 0 of the experiment, MDAMB231-BoM-1833-TGL cells were blocked with antibodies according to the method of Example 4. After 6 hours, the cells were digested. The medium was removed, and the cells were washed with PBS once and resuspended in PBS to a concentration of 1×10^6 cells/ml. Then, mice were injected with 1×10^5 tumor cells/100 μl by ventricular injection to establish a mouse metastasis model. Every other week, the mice were subjected to in vivo imaging to record the fluorescence signal data. By establishing a breast cancer metastasis model, periodically administration of the monoclonal antibody FC17-7 prepared in Example 1 was performed in mice.
The day before the injection of tumor cells into mice was recorded as Day −1 of the experiment. On Day −1, the mice were fasted for 4 hours, and injected with the desired concentration of the extracellular loop 1 peptide of TM4SF1 prepared in Example 3 or IgG (as negative control), and given food after 2 hours. After the first injection of the peptide, the mice were injected with the peptide every other day. On Day 0 of the experiment, MDAMB231-BoM-1833-TGL cells were blocked with the peptide according to the method of Example 9. After 6 hours, the cells were digested. The medium was removed, and the cells were washed with PBS once, and resuspended in PBS to a concentration of 1×10^6 cells/ml. For the method of establishing a breast cancer metastasis mouse model, refer to the method in Example 7.

Setting [4] is: listed as small extracellular loop 1 peptide of TM4SF1.

For the sequence “FPNGETKYASENHLSRC [extracellular loop 1 peptide of TM4SF1]”, the “inhibition of P-STAT3 / downstream signal transduction (Western Blotting), peptide” value in test [1] is “began to inhibit P-STAT3”; in test [1] (setting [4]) it was “inhibits downstream signal transduction”. The “concentration at which the peptide began to inhibit P-STAT3” value in test [1] (different concentrations of peptide, dose-dependent) worked out at 9 µg/mL. Further, the “disruption of the interaction between TM4SF1 and DDR1 (co-immunoprecipitation), peptide” value in test [2] is “significantly disrupt the interaction between TM4SF1 and DDR1”; in test [2] (setting [4]), “disrupts the interaction between TM4SF1 and DDR1”. Besides, the “metastasis of breast cancer, peptide” value in test [3] was “significantly inhibit the metastasis of breast cancer”; in test [3] (setting [4]), “significantly inhibits metastasis of breast cancer”. The “survival time of the mice, peptide” value is given as “prolong the survival time of the mice” in test [3] (FIG. 13) and “prolongs the survival mice” in test [3] (FIG. 13, listed as small extracellular loop 1 peptide of TM4SF1).
